ChEMBL document CHEMBL3137667, “[Drug-induced liver injury; fourteenth updated edition of the bibliographic database of liver injuries and related drugs]” (Gastroenterol Clin Biol, 2004)
Where a SMILES comes first, the peptide text is derived from it. Bridges are numbered along the chain shown (N, C = ends). [ ]: non-standard residue; d: D form.

What was measured:
[1] = Comments (NB not yet translated). [column 'COMMENTAIRES' in source]; settings: human
[2] = human
[3] = human; remark: listed apart in the source
[4] = human; remark: listed apart in the source
[5] = human; remark: listed apart in the source
[6] = human; remark: listed apart in the source
[7] = Highest frequency of acute liver toxicity observed during clinical trials, expressed as a percentage. [column '% AIGUE' in source]; settings: human
[8] = human, serum
[9] = human, serum; remark: listed apart in the source
[10] = human; remark: listed apart in the source
[11] = human; remark: listed apart in the source
[12] = human, serum, 4383 h
[13] = human; remark: listed apart in the source
[14] = Highest frequency of moderate liver toxicity observed during clinical trials, expressed as a percentage. [column '% BIOL' in source]; settings: human
[15] = human; remark: listed apart in the source
[16] = Proposed mechanism(s) of liver damage. [column 'MEC' in source]; settings: human
[17] = Times to onset, minimal and maximal, observed in the indexed observations. [column 'DELAI' in source]; settings: human
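Wherever Hepatotoxicity (association with vascular disease) is given: count of indexed literature references reporting vascular liver injury in humans, e.g. peliosis hepatitis, hepatic veno-occlusive disease or Budd-Chiari syndrome.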
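Wherever Hepatotoxicity (benign tumour) is given: value is a count of indexed literature references citing a benign tumour confirmed by histopathology.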
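Wherever Hepatotoxicity (choleostasis) is given: human cholestatic liver injury, shown by histopathology or by peak ALT or AST elevation over alkaline phosphatase ratio below 2, value counts indexed literature reports.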
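Wherever Hepatotoxicity (chronic liver disease) is given: chronic liver injury confirmed by histopathology or persistently raised serum aminotransferase activity beyond 6 months, value given as the count of indexed literature references.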
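Wherever Hepatotoxicity (cirrhosis) is given: value is a count of indexed literature references reporting cirrhosis confirmed by histopathology.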
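Wherever Hepatotoxicity (cytolytic) is given: human cytolytic liver injury, shown by histopathology or by a ratio above 5 of peak ALT or AST elevation to alkaline phosphatase elevation, value counts indexed references.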
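Wherever Hepatotoxicity (granulomatous hepatitis) is given: value is a count of indexed literature references reporting granulomatous liver disease confirmed by histopathology.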
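Wherever Hepatotoxicity (malignant tumour) is given: malignant tumour confirmed by histopathology, value gives the count of indexed literature references reporting it.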
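Wherever Hepatotoxicity (severe hepatitis) is given: human clinical data: severe hepatitis, meaning potentially life-threatening liver failure or clinically observed cases, the value counts how many indexed literature references report it.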
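Wherever Hepatotoxicity (steatosis) is given: steatosis confirmed by histopathology, value is the count of indexed references.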

Molecule	Hepatotoxicity (comment) [1]	Hepatotoxicity (steatosis) [2]	Hepatotoxicity (cirrhosis) [3]	Hepatotoxicity (severe hepatitis) [4]	Hepatotoxicity (benign tumour) [5]	Hepatotoxicity (cytolytic) [6]	Hepatotoxicity (acute) [7] [%]	Hepatotoxicity (moderate) [8]	Hepatotoxicity (acute) [9]	Hepatotoxicity (association with vascular disease) [10]	Hepatotoxicity (malignant tumour) [11]	Hepatotoxicity (chronic liver disease) [12]	Hepatotoxicity (choleostasis) [13]	Hepatotoxicity (moderate) [14] [%]	Hepatotoxicity (granulomatous hepatitis) [15]	Hepatotoxicity (severe hepatitis) ([4]; Liver)	Hepatotoxicity (acute) ([7]; Liver) [%]	Hepatotoxicity (mechanism) [16]	Hepatotoxicity (moderate) ([14]; Liver) [%]	Hepatotoxicity (time to onset) [17]
CC(C)[C@@H]1NC(=O)[C@H](CCCCN)NC(=O)[C@@H](Cc2c[nH]c3ccccc23)NC(=O)[C@H](Cc2ccc(O)cc2)NC(=O)[C@@H](NC(=O)[C@H](N)Cc2ccc3ccccc3c2)CSSC[C@@H](C(=O)N[C@H](C(N)=O)[C@@H](C)O)NC1=O [LANREOTIDE]	BOUE_BILIAIRE LITHIASE_VESICULAIRE ENCEPHALOPATHIE	0	0	0	0	0	0	0	0	0	0	0	0	0	0					
CC[C@H](c1ccc(O)cc1)[C@@H](CC)c1ccc(O)cc1 [HEXESTROL]	NASH	1	0	0	0	0	0	0	0	0	0	1	0	0	0					
CC(C)[C@@H]1NC(=O)[C@H](CCCCN)NC(=O)[C@@H](Cc2c[nH]c3ccccc23)NC(=O)[C@H](Cc2ccc(O)cc2)NC(=O)[C@@H](NC(=O)[C@H](N)Cc2ccccc2)CSSC[C@@H](C(=O)N[C@@H](Cc2c[nH]c3ccccc23)C(N)=O)NC1=O [VAPREOTIDE] (H-[dF]CY[dW]KVCW-NH2; disulfide 2-7)	LITHIASE	0	0	0	0	0	0	1	0	0	0	0	0	4.8	0					
ANTIMONY (III) ION	HEPATONEPHRITE	0	0	0	0	1	0	0	1	0	0	0	0	0	0					
COc1cc([C@@H]2c3cc4c(cc3[C@@H](O[C@@H]3O[C@@H]5CO[C@@H](c6cccs6)O[C@H]5[C@H](O)[C@H]3O)[C@H]3COC(=O)[C@H]23)OCO4)cc(OC)c1O [TENIPOSIDE]	HNR	0	0	0	0	0	0	4	0	1	0	0	0	23.8	0					
CO/N=C(\C(=O)N[C@@H]1C(=O)N2C(C(=O)O)=C(CSc3nnnn3C)CS[C@H]12)c1csc(N)n1 [CEFMENOXIME]	CHOLESTASE_PROLONGEE	0	0	0	0	0	0	11	1	0	0	0	1	12.2	1					
O=C1Nc2ccc(Cl)cc2C(c2ccccc2Cl)=NC1O (stereo not drawn) [LORAZEPAM]	I/PYRIMETHAMINE	0	0	0	0	0	0	1	1	0	0	0	0	0	0					
CC1=C(C(=O)O)N2C(=O)[C@@H](NC(=O)[C@H](N)c3ccc(O)cc3)[C@H]2SC1 [CEFADROXIL]		0	0		0	1		1	2	0	0	0	2		0	0	0	Allergic	3.1	4 days - 6 days
O=c1[nH]c2ccccc2n1CCCN1CCN(C(c2ccccc2)c2ccccc2)CC1 [OXATOMIDE]		0	0	0	0	3	0	2	4	0	0	0	2	8.3	0			Allergic		10 days - 3 months
NADROPARIN CALCIUM		0	0	0	0	0	0	8	0	0	0	0	0	66.7	0			Dose-dependant		5 days - 1 week
